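All cell lines were grown in 96-well plates and treated with compound for 48 hours. At the GI50, growth is halved. TGI: concentration producing complete growth inhibition.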
Experiments:
Assay in all cases: DTP human tumour cell line panel, 48 h
[1] = tested on: SNB-19 CNS
[2] = tested on: HCT-116 colon
[3] = tested on: K-562 leukemia
[4] = tested on: MDA-MB-435
[5] = tested on: TK-10 renal
[6] = tested on: IGROV1 ovarian
[7] = tested on: NCI-H23 lung
[8] = tested on: A549 NSCLC
[9] = tested on: CCRF-CEM leukemia
[10] = tested on: SF-539 CNS
[11] = tested on: T-47D breast
[12] = tested on: PC-3 prostate
[13] = tested on: MCF7 breast
[14] = tested on: A498 renal
[15] = tested on: COLO 205 colon
[16] = tested on: HOP-92 NSCLC
[17] = tested on: NCI-H226 lung
[18] = tested on: SW-620 colon
[19] = tested on: HT29 colon
[20] = tested on: OVCAR-3 ovarian
[21] = tested on: EKVX NSCLC
[22] = tested on: SN12C renal
[23] = tested on: SF-268 CNS
[24] = tested on: HS 578T breast
[25] = tested on: SNB-75 CNS
[26] = tested on: OVCAR-8 ovarian
[27] = tested on: DU-145 prostate
[28] = tested on: KM12 colon
[29] = tested on: UACC-62 melanoma
[30] = tested on: NCI/ADR-RES ovarian
[31] = tested on: HCC-2998 colon
[32] = tested on: M14 melanoma
[33] = tested on: OVCAR-5 ovarian
[34] = tested on: SK-MEL-28 melanoma
[35] = tested on: ACHN renal
[36] = tested on: 786-0 renal
[37] = tested on: U251 CNS
[38] = tested on: CAKI-1 renal
[39] = tested on: NCI-H460 lung
[40] = tested on: HCT-15 colon
[41] = tested on: SK-OV-3 ovarian
[42] = tested on: LOX IMVI melanoma
[43] = tested on: SK-MEL-5 melanoma
[44] = tested on: MALME-3M melanoma
[45] = tested on: UO-31 renal
[46] = tested on: HL-60(TB) leukemia
[47] = tested on: NCI-H522 lung
[48] = tested on: MDA-MB-231 breast
[49] = tested on: OVCAR-4 ovarian
[50] = tested on: MOLT-4 leukemia
[51] = tested on: SF-295 CNS
[52] = tested on: HOP-62 NSCLC
[53] = tested on: RXF 393 renal
[54] = tested on: UACC-257 melanoma
[55] = tested on: BT-549 breast
[56] = tested on: SK-MEL-2 melanoma

O=C(COc1cccc(/C=C2\CSc3ccc(Cl)cc3C2=O)c1)c1ccc(Cl)cc1
GI50 [1]: 6.57 µM
TGI [1]: 20.8 µM
GI50 [2]: 1.5 µM
TGI [2]: 2.83 µM
GI50 [3]: 1.83 µM
TGI [3]: 4.53 µM
GI50 [4]: 2.29 µM
TGI [4]: 8.09 µM
GI50 [5]: 29 µM
TGI [5]: 79.9 µM
GI50 [6]: 3.29 µM
TGI [6]: 20.2 µM
GI50 [7]: 12.9 µM
TGI [7]: 42.5 µM
GI50 [8]: 77.6 µM
TGI [8]: > 100 µM
GI50 [9]: 1.66 µM
TGI [9]: 4.22 µM
GI50 [10]: 16.8 µM
TGI [10]: 31.2 µM
GI50 [11]: 0.993 µM
TGI [11]: 18.4 µM
GI50 [12]: 3.35 µM
TGI [12]: 11.4 µM
GI50 [13]: 2.12 µM
TGI [13]: 10.4 µM
GI50 [14]: 44.6 µM
TGI [14]: > 100 µM
GI50 [15]: 5.32 µM
TGI [15]: 20.2 µM
GI50 [16]: 0.666 µM
TGI [16]: 9.8 µM
GI50 [17]: 13.4 µM
TGI [17]: 44.4 µM
GI50 [18]: 1.67 µM
TGI [18]: 3.09 µM
GI50 [19]: 2.08 µM
TGI [19]: 4.18 µM
GI50 [20]: 3.8 µM
TGI [20]: 13.6 µM
GI50 [21]: 10.6 µM
TGI [21]: 38 µM
GI50 [22]: 8.89 µM
TGI [22]: 22.4 µM
GI50 [23]: 13.6 µM
TGI [23]: 30 µM
GI50 [24]: 2.46 µM
TGI [24]: 6.91 µM
GI50 [25]: 14 µM
TGI [25]: 37.8 µM
GI50 [26]: 5.1 µM
TGI [26]: > 100 µM
GI50 [27]: 13.6 µM
TGI [27]: 27.9 µM
GI50 [28]: 1.76 µM
TGI [28]: 4.13 µM
GI50 [29]: 9.04 µM
TGI [29]: 22.5 µM
GI50 [30]: 11.3 µM
TGI [30]: 31.4 µM
GI50 [31]: 10.7 µM
TGI [31]: 22.6 µM
GI50 [32]: 12.4 µM
TGI [32]: 28.2 µM
GI50 [33]: 12.5 µM
TGI [33]: 29.8 µM
GI50 [34]: 15.6 µM
TGI [34]: 30.4 µM
GI50 [35]: 12.5 µM
TGI [35]: 25 µM
GI50 [36]: 14.5 µM
TGI [36]: 29.5 µM
GI50 [37]: 2.32 µM
TGI [37]: 5.44 µM
GI50 [38]: 12.2 µM
TGI [38]: 34.1 µM
GI50 [39]: 23.1 µM
TGI [39]: > 100 µM
GI50 [40]: 1.8 µM
TGI [40]: 3.9 µM
GI50 [41]: 20.4 µM
TGI [41]: 97.5 µM
GI50 [42]: 1.63 µM
TGI [42]: 3.02 µM
GI50 [43]: 5.33 µM
TGI [43]: 19.6 µM
GI50 [44]: 10.6 µM
TGI [44]: 23.9 µM
GI50 [45]: 12 µM
TGI [45]: 27.2 µM
GI50 [46]: 2.69 µM
TGI [46]: 6.87 µM
GI50 [47]: 1.74 µM
TGI [47]: 4.19 µM
GI50 [48]: 2.93 µM
TGI [48]: 16.5 µM
GI50 [49]: 9.25 µM
TGI [49]: 23.1 µM
GI50 [50]: 1.84 µM
TGI [50]: 4.46 µM
GI50 [51]: 4.48 µM
TGI [51]: 18.7 µM
GI50 [52]: 22.1 µM
TGI [52]: 72.7 µM
GI50 [53]: 14.1 µM
TGI [53]: 34.3 µM
GI50 [54]: 13.4 µM
TGI [54]: 30.8 µM
GI50 [55]: 15 µM
TGI [55]: 28.8 µM
GI50 [56]: 11.2 µM
TGI [56]: 24.5 µM

From PubChem BioAssay (NCI)
